Source: patent publication US20230054379A1, “COMPOSITION AND METHOD OF TREATMENT TO SIMU[…] THE […] EFFICACY OF OPIOIDS AND REDUCE THEIR ADDICTIVE POWER” (Centro de Investigacion Y Desarrollo de Medicamentos (CIDEM), priority 2020, published 2023)
Several values for one entry are separate records, joined by “and”; a condition that tells them apart may be missing. Equal values may be shown once. Read-outs that look alike come from different tables or passages of the source. Marks after values point to notes of the source that are not given here.

Tests used:
[1] = Morphine-induced tolerance/hyperalgesia in healthy rats (von Frey filaments, electronic von Frey, hot plate, formalin test); type: in vivo, rat
Excerpt: (NIH Publication No. 85-23, revised 1996).

[2] = Spontaneous withdrawal symptoms to morphine; type: in vivo, rat; settings: JM-20 co-treatment; day 1 of withdrawal after chronic morphine
Excerpt: In this experiment we studied some somatic behaviors and symptoms in the rat associated with spontaneous withdrawal to morphine (jumping or escape attempts, tremors, mastication, piloerection, head shaking).

[3] = Mechanical hypernociception dose-response in CCI rats (electronic von Frey, % MPE); type: in vivo, rat; settings: for ED50: Rattus norvegicus, 168 h, single dose, doses given in mg/kg
[4] = Mechanical allodynia dose-response in CCI rats (von Frey filaments, % MPE); type: in vivo, rat; settings: 7 days post-CCI
[5] = Thermal hypernociception in CCI rats (Hargreaves test, % MPE); type: in vivo, rat; settings: for % MPE, thermal hypernociception: first administration
[6] = 22 rpm, mean ± SEM, n = 6
Method: Young rats (8-10 weeks) Sprague Dawley (SD) (males, 168-240 g) from the National Center for the Production of Laboratory Animals (CENPALAB, Havana, Cuba) were used, adapted for seven days to the conditions of the laboratory. The animals were kept under an alternating cycle of light and dark every 12 h, the temperature was controlled between 25-27° C. and an EMO 1001 diet established for the laboratory animals. After the adaptation period, the animals were distributed in the different groups according to their body weights. Water and food were kept available ad libitum. […] To induce tolerance/hyperalgesia to morphine, it was administered to the animals subcutaneously (10 mg/kg, 1 mUkg, s.c.) twice a day every 12 h for 10 days or saline solution (Cao, J L et al. 2005 Pharmacol Biochem and Behay. 80: 493-503), after oral administration of JM-20 or its vehicle, carboxymethylcellulose (0.5% CMC in distilled water, 10mUkg, p.o.) 1h before. Correspondingly, the following groups were constituted: CMC-SS (n=6), CMC-MOR (n=6), JM-20-SS (n=6), JM-20 (5mg/kg)-MOR (n=6) and JM-20 (20mg/kg)-MOR (n=6).

[7] = Histopathological study of sciatic nerve (Wallerian degeneration); settings: CCI or sham rats; hematoxylin and eosin, light microscopy
[8] = Intensity of mechanical hypernociception (electronic von Frey) in CCI or sham rats after chronic morphine or saline
[9] = General behavioral evaluation of the nervous system (placing/stepping, righting, pinna, corneal reflexes; signs of CNS depression)
[10] = day 1, 45 min after first dose of morphine or saline, 105 min after JM-20 (20 mg/kg, p.o.) or CMC
[11] = day 5, 45 min after morphine or saline dose, 105 min after JM-20 (20 mg/kg, p.o.) or CMC
[12] = day 1, 45 min after first morphine or saline dose, 105 min after JM-20 (20 mg/kg, p.o.) or CMC
[13] = day 5, 45 min after morphine or saline, 105 min after JM-20 (20 mg/kg, p.o.) or CMC

CCOC(=O)C1=C(C)NC2=C(C=Nc3ccccc3N2)C1c1ccccc1[N+](=O)[O-] (centres unmarked) [JM-20, 3-ethoxycarbonyl-2-methyl-4-(2-nitrophenyl)-4,11-dihydro-1H-pyrido [2,3-b] [1,5] benzodiazepine]
Response to mechanical and thermal stimuli versus control group (CMC-SS) ([1]; JM-20-SS group, non-injured rats): did not show differences
Thermal hyperalgesia (PWL, hot plate test) ([1]; healthy rats, chronic morphine + JM-20 co-treatment, at 11 days): prevented thermal hyperalgesia
Percentage response to 4 g VFF and 15 g VFF and withdrawal threshold (Δ) ([1]; healthy rats, morphine 10 mg/kg s.c. twice a day for 10 days, JM-20 p.o. co-treatment 1 h before): significantly reduced
Nociceptive scores in the 5% formalin test ([1]; tolerant/hyperalgesic rats, day 11, test dose of morphine 5 mg/kg i.p., both phases): significantly improved nociceptive scores
Spontaneous somatic withdrawal symptoms after withdrawal of morphine [2]: significantly reduced
% MPE, intensity of mechanical hypernociception ([3]; JM-20 2.5 mg/kg p.o., 60 minutes after first dose, 7 days post-CCI): 32.26±4.2%
% MPE, intensity of mechanical hypernociception ([3]; JM-20 2.5 mg/kg p.o., 14 days post-CCI after repeated doses): 40.86±7.1%
% MPE, intensity of mechanical hypernociception ([3]; JM-20 5 mg/kg p.o., 60 minutes after first dose, 7 days post-CCI): 48.02±6.3%
% MPE, intensity of mechanical hypernociception ([3]; JM-20 5 mg/kg p.o., 14 days post-CCI after repeated doses): 38.13±9.4%
% MPE, intensity of mechanical hypernociception ([3]; JM-20 10 mg/kg p.o., 60 minutes after first dose, 7 days post-CCI): 39.20±7.9%
% MPE, intensity of mechanical hypernociception ([3]; JM-20 10 mg/kg p.o., 14 days post-CCI after repeated doses): 46.18±5.7%
% MPE, intensity of mechanical hypernociception ([3]; JM-20 20 mg/kg p.o., 60 minutes after first dose, 7 days post-CCI): 58.15±7.3%
% MPE, intensity of mechanical hypernociception ([3]; JM-20 20 mg/kg p.o., 14 days post-CCI after repeated doses): 55.28±8.3%
Neuroadaptations (tolerance/hyperalgesia) after repeated administration ([3]; JM-20 p.o. for 8 days, mechanical hypernociception at days 14, 15-16 post-CCI): neuroadaptations (tolerance/hyperalgesia) were not observed
ED50 ([3]; po, JM-20 p.o., 7 days post-CCI): 12.4 ± 6.4 mg/kg
% MPE, mechanical allodynia ([4]; JM-20 2.5 mg/kg p.o., 1 h after first administration): 24.97±8.5%
% MPE, mechanical allodynia ([4]; JM-20 5 mg/kg p.o., 1 h after first administration): 50.21±7.6%
% MPE, mechanical allodynia ([4]; JM-20 10 mg/kg p.o., 1 h after first administration): 48.68±7.6%
% MPE, mechanical allodynia ([4]; JM-20 20 mg/kg p.o., 1 h after first administration): 64.25±9.7%
ED50 ([4]; Rattus norvegicus, po, 168 h, JM-20 p.o., single dose, doses given in mg/kg): 8.44 ± 1.9 mg/kg
Effect on withdrawal thresholds in the Hargreaves test ([5]; JM-20 2.5-20 mg/kg p.o., after first administration or repeated doses at 14 days post-CCI): did not increase withdrawal thresholds significantly
Rota-rod motor performance (Latency sec) [6, 10]: 59 ± 0.5^b sec
Rota-rod motor performance (Latency sec) [6, 11]: 59 ± 0.5 s
Rota-rod motor performance (Latency sec) ([6]; day 11, without medications): 60 s
Qualitative histopathological changes of the sciatic nerve (Wallerian degeneration, cellularity) [7]: still exerts its neuroprotective effect
Intensity of mechanical hypernociception, difference (Δ) of the withdrawal threshold ([8]; CCI rats, SS s/c + JM-20 10 mg/kg p.o. for 5 days, day 11 post-surgery, 6 hours after last JM-20, 10 mg/kg): 10.68±5.89 grams and 10.68 ± 5.89*≠ grams
Intensity of mechanical hypernociception, difference (Δ) of the withdrawal threshold ([8]; CCI rats, SS s/c + JM-20 10 mg/kg p.o. for 5 days, day 23 post-surgery, 12 days after discontinuation of JM-20, 10 mg/kg): 5.93±2.65 grams and 5.93 ± 2.65*≠ grams
Intensity of mechanical hypernociception, difference (Δ) of the withdrawal threshold ([8]; CCI rats, saline (SS) s/c + JM-20 10 mg/kg p.o. group, day 7 post-surgery, prior to start of treatments): 41.55 ± 1.50 grams
Corneal reflex, % of animals showing the reflex [9, 12]: 100%
Pinna reflex, % of animals showing the reflex [9, 12]: 100%
Placing/stepping reflex, % of animals showing the reflex [9, 12]: 100%
Righting reflex, % of animals showing the reflex [9, 12]: 100%
Corneal reflex, % of animals showing the reflex [9, 13]: 100%
Pinna reflex, % of animals showing the reflex [9, 13]: 100%
Placing/stepping reflex, % of animals showing the reflex [9, 13]: 100%
Righting reflex, % of animals showing the reflex [9, 13]: 100%
Corneal reflex, % of animals showing the reflex ([9]; day 11, without medications): 100%
Pinna reflex, % of animals showing the reflex ([9]; day 11, without medications): 100%
Placing/stepping reflex, % of animals showing the reflex ([9]; day 11, without medications): 100%
Righting reflex, % of animals showing the reflex ([9]; day 11, without medications): 100%

NCC1(CC(=O)O)CCCCC1 [gabapentin]
Qualitative histopathological changes of the sciatic nerve (Wallerian degeneration, cellularity) [7]: decrease in these alterations

CN1CC[C@]23c4c5ccc(O)c4O[C@H]2[C@@H](O)C=C[C@H]3[C@H]1C5 [morphine, reference compound]
ED50 ([3]; sc, morphine s.c., 7 days post-CCI): 5.63 ± 0.8 mg/kg
% MPE, intensity of mechanical hypernociception ([3]; morphine 3 mg/kg s.c., 14 days post-CCI after 8 repeated doses): 1.36±0.5%
% MPE, intensity of mechanical hypernociception ([3]; morphine 3 mg/kg s.c., first administration, 7 days post-CCI): 17.67±2.8%
% MPE, intensity of mechanical hypernociception ([3]; morphine 5 mg/kg s.c., 14 days post-CCI after 8 repeated doses): 6.10±1.0%
% MPE, intensity of mechanical hypernociception ([3]; morphine 5 mg/kg s.c., first administration, 7 days post-CCI): 48.05±2.9%
% MPE, intensity of mechanical hypernociception ([3]; morphine 10 mg/kg s.c., 14 days post-CCI after 8 repeated doses): 14.18±4.7%
% MPE, intensity of mechanical hypernociception ([3]; morphine 10 mg/kg s.c., first administration, 7 days post-CCI): 72.22±4.6%
% MPE, mechanical allodynia ([4]; morphine 10 mg/kg s.c., first administration): 100%
ED50 ([5]; Rattus norvegicus, sc, 168 h, morphine s.c., single dose, 7 days post-CCI, doses given in mg/kg): 3.17 ± 0.4 mg/kg
% MPE, thermal hypernociception ([5]; morphine 3 mg/kg s.c., 7 days post-CCI): 30.0±13%
% MPE, thermal hypernociception ([5]; morphine 10 mg/kg s.c., 7 days post-CCI): 95.69±3.4%
Rota-rod motor performance (Latency sec) [6, 10]: 16 ± 1.9^a sec
Rota-rod motor performance (Latency sec) [6, 11]: 57 ± 1.8 s
Rota-rod motor performance (Latency sec) ([6]; day 11, without medications): 60 s
Qualitative histopathological changes of the sciatic nerve (Wallerian degeneration, cellularity) [7]: minimal increase in cellularity
Intensity of mechanical hypernociception, difference (Δ) of the withdrawal threshold ([8]; CCI rats, morphine group (vehicle p.o.), day 7 post-surgery, prior to start of treatments): 41.22±1.58 grams
Intensity of mechanical hypernociception, difference (Δ) of the withdrawal threshold ([8]; CCI rats, morphine group (vehicle p.o.), day 7 post-surgery, prior to start of treatments, listed as MOR): 41.22 ± 1.58 grams
Intensity of mechanical hypernociception, difference (Δ) of the withdrawal threshold ([8]; Sham CCI rats, morphine group, day 7 post-surgery, prior to start of treatments): 2.06 ± 2.96≠ grams
Corneal reflex, % of animals showing the reflex [9, 12]: 100%
Pinna reflex, % of animals showing the reflex [9, 12]: 100%
Placing/stepping reflex, % of animals showing the reflex [9, 12]: 100%
Righting reflex, % of animals showing the reflex [9, 12]: 100%
Corneal reflex, % of animals showing the reflex [9, 13]: 100%
Pinna reflex, % of animals showing the reflex [9, 13]: 100%
Placing/stepping reflex, % of animals showing the reflex [9, 13]: 100%
Righting reflex, % of animals showing the reflex [9, 13]: 100%
Corneal reflex, % of animals showing the reflex ([9]; day 11, without medications): 100%
Pinna reflex, % of animals showing the reflex ([9]; day 11, without medications): 100%
Placing/stepping reflex, % of animals showing the reflex ([9]; day 11, without medications): 100%
Righting reflex, % of animals showing the reflex ([9]; day 11, without medications): 100%
